US20240166649A1, “DIHYDROPYRIMIDINE COMPOUND, PREPARATION METHOD THEREFOR AND APPLICATION THEREOF” (Shanghai Visonpharma Co., Ltd., priority 2021, published 2024)
pEC50: −log10 of the molar value.

Tested on: HBV (hepatitis B virus) in HepG2.2.15 cells
Assay: Cell-based anti-viral activity assay (HBV DNA in supernatant by quantitative PCR)
Details: 120 h, anti-HBV activity, HepG2.2.15 cells, 5 days, read-out: EC50 (HepG2.2.15)
Procedure: Cell-Based Anti-Viral Activity Assay
The Invention determined the anti-HBV (hepatitis B virus) activity of compounds in HepG2.2.15 cells (Table 1).
HepG2.2.15 is a cell line stably transfected with the HBV genome. HepG2.2.15 cells were cultured in DMEM (1X) with 10% fetal bovine serum (Corning), 100 U penicillin (Gibico), 100 μg/mL streptomycin (Gibico), 250 μg/mL geneticin (Gibco) and GlutaMAXTM-I medium (Invitrogen).
HepG2.2.15 cells were seeded into 96-well plates (4×10^4 cells in 100 μL of medium per well) and incubated overnight at 37° C. The test compounds were weighed and prepared as 10 mM stock solution with DMSO. The stock solutions of the compounds were diluted by a gradient of 3.16 times with DMSO, and then diluted by a gradient of 3.16 times with medium for 50 times. Finally, the diluted compound solutions were added to the cell plate with a total volume of 200 μL and the final DMSO concentration was 1%. The 96-well culture plates loaded with drugs were transferred to an incubator at 37° C. for 5 days. […] nucleic acid releasing agent was added to 96-well PCR reaction plate, and 2 μL of cell supernatant or HBV quantitative standards were added to the corresponding Wells. Centrifuged the plates to fully mix, and incubated at room temperature for 10 min to fully release nucleic acid. Quantified HBV DNA content by fluorescent quantitative PCR (CFX Connect Real-Time System) using Sanxiang Bio hepatitis B virus fluorescent quantitative diagnostic kit.
The standard curve was established by taking the logarithm of the copy number (IU/ml) of the HBV standard sample (log 10) as the abscordinate and the corresponding CT value as the ordinate. The copy number of the sample was calculated according to the corresponding CT of the positive sample and the standard curve, and the percentage of inhibition rate was calculated as follows: • % Inhibition=100-100*(sample HBV copy number−high concentration reference compound column HBV copy number)/DMSO column HBV copy number−high concentration reference compound column HBV copy number).

Going from `CCOC(=O)C1=C(CN2CCN3C(=O)N(C45CC(C(=O)NC)(C4)C5)C[C@@H]3C2)NC(c2nccs2)=N[C@H]1c1cccc(F)c1C` [Compound 26, Ethyl (S)-4-(3-Fluoro-2-Methylphenyl)-6-(((S)-2-(3-(Methylcarbamoyl)Bicyclo[1.1.1]Pentan-1-Yl)-3-Oxohexahydroimidazo[1,5-a]Pyrazin-7(1H)-Yl)Methyl)-2-(Thiazol-2-Yl)-1,4-Dihydropyrimidine-5-Carboxylate] to `CCOC(=O)C1=C(CN2CCN3C(=O)N(C45CC(C(C)C(=O)O)(C4)C5)C[C@@H]3C2)NC(c2nccs2)=N[C@H]1c1cccc(F)c1C` (stereo partly drawn) [Compound 30, 2-(3-((S)-7-(((S)-5-(Ethoxycarbonyl)-6-(3-Fluoro-2-Methylphenyl)-2-(Thiazol-2-Yl)-3,6-Dihydropyrimidin-4-Yl)Methyl)-3-Oxohexahydroimidazo[1,5-a]Pyrazin-2(3H)-Yl)Bicyclo[1.1.1]Pentan-1-Yl)Propanoic Acid], the pEC50 falls from 8.30 to 7.96 (0.34 log units). The first is the more potent here.

Compared with `CCOC(=O)C1=C(CN2CCN3C(=O)N(C45CC(C(=O)N6CCOCC6)(C4)C5)C[C@@H]3C2)NC(c2nccs2)=N[C@H]1c1cccc(F)c1C` [Compound 27, Ethyl (S)-4-(3-Fluoro-2-Methylphenyl)-6-(((S)-2-(3-(Morpholine-4-Carbonyl)Bicyclo[1.1.1]Pentan-1-Yl)-3-Oxohexahydroimidazo[1,5-a]Pyrazin-7(1H)-Yl)Methyl)-2-(Thiazol-2-Yl)-1,4-Dihydropyrimidine-5-Carboxylate], `CCOC(=O)C1=C(CN2CCN3C(=O)N(C45CC(C(O)C(=O)O)(C4)C5)C[C@@H]3C2)NC(c2nccs2)=N[C@H]1c1cccc(F)c1C` (stereo partly drawn) [Compound 50, 2-(3-((S)-7-(((S)-5-(Ethoxycarbonyl)-6-(3-Fluoro-2-Methylphenyl)-2-(Thiazol-2-Yl)-3,6-Dihydropyrimidin-4-Yl)Methyl)-3-Oxohexahydroimidazo[1,5-a]Pyrazin-2(3H)-Yl)Bicyclo[1.1.1]Pentan-1-Yl)-2-Hydroxyacetic Acid] is 0.30 log units higher in pEC50: 8.22 for the first, 8.52 for the second. The second is the more potent here.

Going from `CCOC(=O)C1=C(CN2CCN3C(=O)N(C45CC(CO)(C4)C5)C[C@@H]3C2C(=O)OCC)NC(c2nccs2)=N[C@H]1c1cccc(F)c1C` (stereo partly drawn) [Compound 31, Ethyl (8aR)-7-(((S)-5-(Ethoxycarbonyl)-6-(3-Fluoro-2-Methylphenyl)-2-(Thiazol-2-Yl)-3,6-Dihydropyrimidin-4-Yl)Methyl)-2-(3-(Hydroxymethyl)Bicyclo[1.1.1]Pentan-1-Yl)-3-Oxooctahydroimidazo[1,5-a]Pyrazine-8-Carboxylate] to `CCOC(=O)C1=C(CN2CCN3C(=O)N(C45CC(CC(=O)O)(C4)C5)C[C@@H]3[C@H]2COC)NC(c2nccs2)=N[C@H]1c1cccc(F)c1C` [Compound 43, 2-(3-((8S,8aR)-7-(((S)-5-(Ethoxycarbonyl)-6-(3-Fluoro-2-Methylphenyl)-2-(Thiazol-2-Yl)-3,6-Dihydropyrimidin-4-Yl)Methyl)-8-(Methoxymethyl)-3-Oxohexahydroimidazo[1,5-a]Pyrazin-2(3H)-Yl)Bicyclo[1.1.1]Pentan-1-Yl)Acetic Acid], the pEC50 falls from 7.60 to 6.71 (0.89 log units). The first is the more potent here.

Going from `CCOC(=O)C1=C(CN2CCN3C(=S)N(C45CC(C(=O)O)(C4)C5)C[C@@H]3C2)NC(c2nccs2)=N[C@H]1c1cccc(F)c1C` [Compound 32, 3-((S)-7-(((S)-5-(Ethoxycarbonyl)-6-(3-Fluoro-2-Methylphenyl)-2-(Thiazol-2-Yl)-3,6-Dihydropyrimidin-4-Yl)Methyl)-3-Thioxohexahydroimidazo[1,5-a]Pyrazin-2(3H)-Yl)Bicyclo[1.1.1]Pentane-1-Carb Oxylic Acid] to `CCOC(=O)C1=C(CN2CCN3C(=O)N(C45CC(C(OC)C(=O)O)(C4)C5)C[C@@H]3C2)NC(c2nccs2)=N[C@H]1c1cccc(F)c1C` (stereo partly drawn) [Compound 51, 2-(3-((S)-7-(((S)-5-(Ethoxycarbonyl)-6-(3-Fluoro-2-Methylphenyl)-2-(Thiazol-2-Yl)-3,6-Dihydropyrimidin-4-Yl)Methyl)-3-Oxohexahydroimidazo[1,5-a]Pyrazin-2(3H)-Yl)Bicyclo[1.1.1]Pentan-1-Yl)-2-Methoxyacetic Acid], the pEC50 falls from 7.52 to 6.86 (0.66 log units).

Going from `CCOC(=O)C1=C(CN2CCN3C(=O)N(C45CC(CC(=O)O)(C4)C5)C[C@@H]3C2)NC(c2nccs2)=N[C@H]1c1cccc(F)c1Cl` [Compound 34, 2-(3-((S)-7-(((R)-6-(2-Chloro-3-Fluorophenyl)-5-(Ethoxycarbonyl)-2-(Thiazol-2-Yl)-3,6-Dihydropyrimidin-4-Yl)Methyl)-3-Oxohexahydroimidazo[1,5-a]Pyrazin-2(3H)-Yl)Bicyclo[1.1.1]Pentan-1-Yl)Acetic Acid] to `CCOC(=O)C1=C(CN2CCN3C(=O)N(C45CC(CC(=O)O)(C4)C5)C[C@@H]3C2)NC(c2nccs2)=N[C@H]1c1ccc(F)c(F)c1` [Compound 36], the pEC50 falls from 7.66 to 7.32 (0.34 log units).

Compared with `COC(=O)C1=C(CN2CCN3C(=O)N(C45CC(CC(=O)O)(C4)C5)C[C@@H]3C2)NC(c2nccs2)=N[C@H]1c1ccc(F)cc1Br` [Compound 39, 2-(3-((S)-7-(((R)-6-(2-Bromo-4-Fluorophenyl)-5-(Methoxycarbonyl)-2-(Thiazol-2-Yl)-3,6-Dihydropyrimidin-4-Yl)Methyl)-3-Oxohexahydroimidazo[1,5-a]Pyrazin-2 (3H)-Yl)Bicyclo[1.1.1]Pentane-1-Yl)Acetic Acid], `COC(=O)C1=C(CN2CCN3C(=O)N(C45CC(CC(=O)O)(C4)C5)C[C@@H]3C2)NC(c2nccs2)=N[C@H]1c1ccc(F)c(F)c1C` [Compound 41, 2-(3-((S)-7-(((S)-6-(3,4-Difluoro-2-Methylphenyl)-5-(Methoxycarbonyl)-2-(Thiazol-2-Yl)-3,6-Dihydropyrimidin-4-Yl)Methyl)-3-Oxohexahydroimidazo[1,5-a]Pyrazin-2(3H)-Yl)Bicyclo[1.1.1]Pentan-1-Yl)Acetic Acid] is 0.61 log units higher in pEC50: 7.49 for the first, 8.10 for the second.

`CCOC(=O)C1=C(CN2CCN3C(=O)N(C45CC(CC(C)(C)C(=O)O)(C4)C5)C[C@@H]3C2)NC(c2nccs2)=N[C@H]1c1ccc(F)cc1Cl` [Compound 40] and `CCOC(=O)C1=C(CN2CCN3C(=O)N(C45CC(C(C)(C)C(=O)O)(C4)C5)C[C@@H]3C2)NC(c2nccs2)=N[C@H]1c1cccc(F)c1C` [Compound 42] are within 0.2 log units of each other in pEC50: 7.92 for the first, 7.96 for the second.

First: CCOC(=O)C1=C(CN2CCN3C(=O)N(C45CCC(C(=O)O)(CC4)CC5)C[C@@H]3C2)NC(c2nccs2)=N[C@H]1c1ccc(F)c(F)c1C [Compound 54]
Second: CCOC(=O)C1=C(CN2CCN3C(=O)N(C45CCC(CC(=O)O)(CC4)C5)C[C@@H]3C2)NC(c2nccs2)=N[C@H]1c1cccc(F)c1C [Compound 63, 2-(4-((S)-7-(((S)-5-(Ethoxycarbonyl)-6-(3-Fluoro-2-Methylphenyl)-2-(Thiazol-2-Yl)-3,6-Dihydropyrimidin-4-Yl)Methyl)-3-Oxohexahydroimidazo[1,5-a]Pyrazin-2(3H)-Yl)Bicyclo[2.2.1]Heptan-1-Yl)Acetic Acid]
The pEC50 of the first is 0.93 log units higher: 8.52 for the first, 7.59 for the second. The first is the more potent here.

In the case of `CCOC(=O)C1=C(CN2CCN3C(=O)N(C45CCC(CC(=O)O)(CC4)C5)C[C@@H]3C2)NC(c2nccs2)=N[C@H]1c1ccc(F)cc1C` [Compound 64, 2-(4-((S)-7-(((S)-5-(Ethoxycarbonyl)-6-(4-Fluoro-2-Methylphenyl)-2-(Thiazol-2-Yl)-3,6-Dihydropyrimidin-4-Yl)Methyl)-3-Oxohexahydroimidazo[1,5-a]Pyrazin-2(3H)-Yl)Bicyclo[2.2.1]Heptan-1-Yl)Acetic Acid], the pEC50 was 7.24.
